Values joined by “and” are separate entries in the source; they are usually repeats but may differ in a detail not shown here. Equal entries are not always repeated.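 1) Cells in 96-well plates. 2) Compound, 48 h, 5 concentrations. 3) Linear interpolation between surrounding doses. 4) Unreached endpoint = highest concentration. Here, GI50 denotes the concentration required for 50% inhibition of growth. TGI: concentration producing complete growth inhibition.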
What was measured:
Assay in all cases: NCI-60 cell line screen, 48 h
A498 renal = test system: A498 renal
LOX IMVI melanoma = test system: LOX IMVI melanoma
TK-10 renal = test system: TK-10 renal
RXF 393 renal = test system: RXF 393 renal
SNB-75 CNS = test system: SNB-75 CNS
NCI-H522 lung = test system: NCI-H522 lung
COLO 205 colon = test system: COLO 205 colon
OVCAR-5 ovarian = test system: OVCAR-5 ovarian
786-0 renal = test system: 786-0 renal
SR leukemia = test system: SR leukemia

SMILES | GI50 (A498 renal) [µM] | TGI (A498 renal) | GI50 (LOX IMVI melanoma) | TGI (LOX IMVI melanoma) | GI50 (TK-10 renal) | TGI (TK-10 renal) | GI50 (RXF 393 renal) [µM] | TGI (RXF 393 renal) | GI50 (SNB-75 CNS) [µM] | TGI (SNB-75 CNS) | GI50 (NCI-H522 lung) [µM] | TGI (NCI-H522 lung) | GI50 (COLO 205 colon) [µM] | TGI (COLO 205 colon) | GI50 (OVCAR-5 ovarian) [µM] | TGI (OVCAR-5 ovarian) | GI50 (786-0 renal) [µM] | TGI (786-0 renal) | GI50 (SR leukemia) | TGI (SR leukemia)
O=C1C=C(Nc2ccccc2)c2ncccc2C1=O | 1.64 | 3 µM | 0.208 µM | 0.514 µM | 1.82 µM | 3.28 µM | 1.4 | 2.72 µM | 1.58 | 2.94 µM | 0.704 | 2.44 µM | 1.95 | 3.92 µM | 1.74 | 3.4 µM | 1.52 | 3.05 µM | 0.691 µM | > 100 µM
Cc1cc(C)c(C(=O)O)c(N)c1O |  | > 100 µM |  | > 100 µM |  | > 100 µM |  | > 100 µM |  | > 100 µM |  | > 100 µM |  | > 100 µM |  | > 100 µM |  | > 100 µM |  | > 100 µM
Nn1c(CCCl)nc2c(Br)cc(Br)cc2c1=O |  | > 56.9 µM |  | 78.6 µM |  | > 100 µM |  | > 100 µM |  | 91.5 µM |  | 38.5 µM |  | 54.1 µM |  | > 71.5 µM |  | 81 µM |  | 72 µM
CCCCCCCC1c2cc3[nH]c(cc4nc(cc5[nH]c(cc(n2)[C@@]1(C)CC(=O)N(C)C)c(C)c5CCC(=O)O)C(CCC(=O)O)=C4C)cc3C (stereo not given in full) |  | 87.2 µM |  | 33.3 µM |  | 79.3 µM |  | 33.9 µM |  | 40 µM |  | 37.8 µM |  | 32.2 µM |  | 55.5 µM |  | 83.1 µM |  | 44.6 µM
NC1=NC(=O)N2CC12 (stereo not given) | 228 | > 100 µM and 875 µM | 38.2 µM and 61.2 µM | > 100 µM and 134 µM | 65.1 µM and 144 µM | > 100 µM and 389 µM |  | > 100 µM and 334 µM | 240 | > 100 µM and 822 µM | 116 | > 100 µM and 367 µM | 278 | > 100 µM and 929 µM | 170 | 528 µM | 160 | > 100 µM and 506 µM | 10.8 µM and 14.6 µM | > 100 µM and 34.8 µM and 73.9 µM
CS(=O)(=O)CCNCc1ccc(-c2ccc3ncnc(Nc4ccc(OCc5ccccc5)c(C(F)(F)F)c4)c3c2)o1 | 6.51 | 25 µM | 4.27 µM | 8.33 µM | 7.61 µM | 22.7 µM | 3.53 | 7.77 µM | 6.21 | 24.7 µM | 5.02 | 9.94 µM | 4.97 | 9.11 µM | 4.87 | 12.5 µM | 5.32 | 11 µM | 7.47 µM | 19.9 µM
COC(=O)C1=CC(O)CCC1c1ccc(OC)cc1 (stereo not given) |  | > 100 µM |  | > 100 µM |  | > 100 µM |  | > 100 µM |  | > 100 µM |  | > 100 µM |  | > 100 µM |  | > 100 µM |  | > 100 µM |  | > 100 µM
COc1cc2c(c(OC)c1OC)-c1ccc(OC)c(=O)cc1[C@@H](NC(=O)CCl)CC2 | < 0.01 | 0.164 µM | < 0.01 µM |  | 0.0647 µM | 14.2 µM | < 0.01 | 19.5 µM | < 0.01 | 54.7 µM | < 0.01 | < 0.01 µM | < 0.01 | < 0.01 µM |  | 30.5 µM | < 0.01 | 1.7 µM | < 0.01 µM | > 95.7 µM
C/C(=C\c1ccn(-c2ccc(N)c(C(F)(F)F)c2)n1)[C@@H]1C[C@@H]2O[C@]2(C)CCC[C@H](C)[C@H](O)[C@@H](C)C(=O)C(C)(C)[C@@H](O)CC(=O)O1 | 0.0175 | 1.31 µM | 0.0122 µM | > 20.8 µM | 0.0548 µM | 16.9 µM | 0.0111 | 0.435 µM | 0.00413 | 0.0876 µM | 0.0085 | 0.0576 µM | 0.00855 | 0.111 µM | 0.025 | > 26.1 µM | 0.0175 | 12.1 µM | 0.00813 µM | 8.64 µM
CCCCCCCC[N+](C)(C)Cc1ccc(C[N+](C)(C)CCCCCCCC)cc1 |  | > 100 µM |  | > 100 µM |  | > 100 µM |  | > 100 µM |  | > 100 µM |  | > 100 µM |  | 3.48 µM |  | > 100 µM |  | > 100 µM |  | > 100 µM
C=C(C)C(=O)NC(N)=NC#N | 201 | > 46.4 µM and 345 µM | 28.6 µM | 96 µM | 33 µM | 98.6 µM and 126 µM | 63 | 65.7 µM and 200 µM | 154 | 289 µM | 2.26 | 16.4 µM and 5.88 µM | 80.5 | 206 µM |  | 304 µM | 30 | 140 µM |  | 87.9 µM and 132 µM
CN(C)CC/C=C1\c2ccccc2Sc2ccc(Cl)cc21 | 3.02 | 14.1 µM and 28 µM | 1.57 µM |  | 1.91 µM | 3.95 µM and 28.3 µM | 1.86 | 5.59 µM and 28.3 µM | 2.46 | 7.61 µM and 25.2 µM | 1.67 | 3.23 µM and 29.1 µM | 1.54 |  | 4.61 | 17.9 µM and 27.8 µM | 2.5 | 6.88 µM and 25.6 µM | 3.29 µM | 8.76 µM
O=C(O)C1C2C=CC(O2)C1C(=O)Nc1ccccc1 (stereo not given) |  | > 100 µM |  | > 100 µM |  | > 100 µM |  | > 100 µM |  | > 100 µM |  | > 100 µM |  | > 100 µM |  | > 100 µM |  | > 100 µM |  | > 100 µM
COc1ccc(-c2cc(-c3ccc(Nc4nc(Nc5ccc(Cl)cc5)nc(Nc5ccc(Cl)cc5)n4)cc3)no2)cc1 | 14 | 61.1 µM | 12.2 µM | 34.9 µM | 20.4 µM | 72.7 µM | 3.67 | 20.3 µM | 35.2 | > 100 µM | 7.67 | 25.5 µM | 11.6 | 29.7 µM | 19.1 | 73.5 µM | 5.42 | 25.5 µM | 2.06 µM | 6.5 µM
O=c1[nH]cnc2c(C3OC(CO)C(O)C3O)[nH]nc12 (stereo not given) |  | > 100 µM |  | > 100 µM |  |  |  | > 100 µM |  | > 100 µM |  | 42.7 µM |  | > 100 µM |  | > 100 µM |  | > 100 µM |  | > 100 µM
CCOC(=O)C12CCCC1(O)N(NC(=O)c1cccc(Cl)c1)C(C)=C2C(=O)OC (stereo not given) |  | > 100 µM |  | > 100 µM |  |  |  | > 100 µM |  | > 100 µM |  | > 100 µM |  |  |  | > 100 µM |  | > 100 µM |  | > 100 µM

Source: PubChem BioAssay (NCI)
